Experimental data taken from US9370504B2, “Pharmaceutical composition containing 1,2-dithiolthione derivative for preventing or treating disease caused by overexpression of LXR-α” (SNU R&DB FOUNDATION, priority 2008, dated 2016).
Where two headings read alike, the source gives them in different places.

What was measured:
SREBP-1 [1] = settings: HepG2 cells, FIG. 5A
SREBP-1 [2] = settings: rat primary cultured liver cells, FIG. 5A
SREBP-1 [3] = settings: H4IIE cells, FIG. 5A
LXRα/RXRα complex = LXRα/RXRα complex (Homo sapiens, UniProt Q13133); settings: LXRα and RXRα overexpressed; nuclear fraction; FIG. 3B
Protocol: Whether a binding capability of LXRE is changed by oltipraz treatment was identified by gel-shift assay. LXRE double-stranded oligonucleotide of a SREBP-1c gene was labeled with a radio active isotope at 5′-terminal by using [γ-^32P]ATP and T4 polynucleotide kinase, and then the labeled probe (1 ml, >10^6 cpm) was reacted with nuclear fraction proteins in a binding buffer solution. The reaction solution was subjected to electrophoresis in 4% polyacrylamide gel and then assayed by autoradiography. […] DNA binding specificity was identified by cold probe titration and supershift assay. For the cold probe titration, 20 times greater (molar base) un-labeled oligonucleotides were reacted in advance.

[4] = Protocol: (§1) Male C57BL/6 mice (average weight of 25 to 30 g) as test animals were purchased from Charles River Orient (Seoul, Korea). For at least one week before being tested, the mice were acclimatized to the surrounding environment in the animal test research center of the College of Pharmacy, Seoul National University, that is, humidity of 55±5%, temperature of 22±2° C., and controlled ventilation. The mice were repeatedly and alternately exposed to light and then placed in the dark for a time interval of 12 hours (from 7 A.M. to 7 P.M). […] The weight and state of the mice were measured once a week. Two groups of mice were respectively raised with a high lipid diet (Dyets Inc., Bethlehem) and a normal diet for 10 weeks. For the last four weeks in each case, oltipraz (10 or 30 mg/kg, 3 times/week) was administered to the mice (FIG. 1). Each group consisted of a total of 10 mice.
SREBP-1 [5] = settings: HepG2 cells treated with T0901317; nuclear fraction; FIG. 5B
FAS = settings: high lipid diet 10 weeks; oltipraz 10-30 mg/kg, 3 times/week, last four weeks; p<0.01; FIG. 9
Protocol: as §1
(§2) Total RNA (2 μg) and d(T)16 primer which were extracted from the liver of mice, and an AMV reverse transcriptase were used to obtain cDNA. The relative amounts of genes were quantified by realtime RT-PCR using a CyBr green dye. The realtime RT-PCR was Light-cycler^2.0 produced by Roche (Mannheim, Germany).

SREBP-1 [6] = settings: high lipid diet 10 weeks; oltipraz 10-30 mg/kg, 3 times/week, last four weeks; p<0.01; FIG. 4
Protocol: as §1, §2

ACC = settings: high lipid diet 10 weeks; oltipraz 10-30 mg/kg, 3 times/week, last four weeks; p<0.01; FIG. 9
Protocol: as §1, §2

LXRα = settings: high lipid diet 10 weeks; oltipraz 10-30 mg/kg, 3 times/week, last four weeks; p<0.01; FIG. 2
Protocol: as §1, §2

[7] = within 12 hours after treatment
[8] = whole cell extract, co-treated with T0901317

Chain of LXRα/RXRα complex (Q13133 whole entry, one chain of several): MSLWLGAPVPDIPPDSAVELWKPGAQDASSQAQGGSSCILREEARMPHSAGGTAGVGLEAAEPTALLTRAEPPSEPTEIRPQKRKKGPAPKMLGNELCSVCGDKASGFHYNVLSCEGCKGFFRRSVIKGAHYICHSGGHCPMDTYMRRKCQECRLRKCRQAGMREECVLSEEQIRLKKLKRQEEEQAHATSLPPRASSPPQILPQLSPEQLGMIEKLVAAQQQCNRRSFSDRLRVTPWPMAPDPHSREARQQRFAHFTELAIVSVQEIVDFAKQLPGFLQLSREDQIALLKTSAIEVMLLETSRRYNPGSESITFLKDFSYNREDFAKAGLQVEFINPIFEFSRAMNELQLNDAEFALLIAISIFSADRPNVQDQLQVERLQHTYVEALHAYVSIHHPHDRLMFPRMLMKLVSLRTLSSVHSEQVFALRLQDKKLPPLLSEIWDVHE

binding capability of LXRα with respect to DNA (LXRE) (LXRα/RXRα complex) | SMILES | expression of SREBP-1 protein after LXRα activator alone (SREBP-1 [1]; [7]) | expression of SREBP-1 protein after LXRα activator alone (SREBP-1 [2]; [7]) | expression of SREBP-1 protein after LXRα activator alone (SREBP-1 [3]; [7]) | T0901317-increased expression of SREBP-1 protein (SREBP-1 [1]; [8]) | T0901317-increased expression of SREBP-1 protein (SREBP-1 [2]; [8]) | T0901317-increased expression of SREBP-1 protein (SREBP-1 [3]; whole cell extract, co-treated with T0901317, FIGS. 6-8) | red part dyed with Oil-Red-O in liver tissue ([4]; HFD+Oltipraz versus HFD+vehicle, FIG. 11) | amount of triglyceride in liver tissues ([4]; high lipid diet 10 weeks, oltipraz administered, p<0.01, FIG. 10) | increased nuclear localization of SREBP-1 (SREBP-1 [5]) | increase in FAS expression (mRNA, relative to normal diet group) (FAS) | increase in SREBP-1 expression (mRNA, relative to normal diet group) (SREBP-1 [6]) | increase in ACC expression (mRNA, relative to normal diet group) (ACC) | increase in LXRα expression (mRNA, relative to normal diet group) (LXRα)
– | O=S(=O)(c1ccccc1)N(CC(F)(F)F)c1ccc(C(O)(C(F)(F)F)C(F)(F)F)cc1 [compound 10901317] | remarkably increased | remarkably increased | remarkably increased | – | – | – | – | – | – | – | – | – | –
substantially decreased | Cc1c(-c2cnccn2)ssc1=S [oltipraz, 4-methyl-5-(2-pyrazinyl)-1,2-dithiol-3-thione] | – | – | – | concentration-dependently reduced | concentration-dependently reduced | concentration-dependently reduced | remarkably reduced | significantly reduced | concentration-dependently reduced | inhibited | inhibited | inhibited | inhibited
